This passage reports IC50 results from patent US8143290B2, “Chemical compounds 572” (AstraZeneca AB, priority 2006, dated 2012).

A word on the IC50: it is the midpoint of a concentration-inhibition curve.

Counter-ions that a name gives are not always drawn.

In this assay the target is T1, recombinant human GR (Homo sapiens, UniProt P04150).
T1 construct: purchased Panvera/Invitrogen P2812 (kit P2893)
T1 sequence (P04150 1-777): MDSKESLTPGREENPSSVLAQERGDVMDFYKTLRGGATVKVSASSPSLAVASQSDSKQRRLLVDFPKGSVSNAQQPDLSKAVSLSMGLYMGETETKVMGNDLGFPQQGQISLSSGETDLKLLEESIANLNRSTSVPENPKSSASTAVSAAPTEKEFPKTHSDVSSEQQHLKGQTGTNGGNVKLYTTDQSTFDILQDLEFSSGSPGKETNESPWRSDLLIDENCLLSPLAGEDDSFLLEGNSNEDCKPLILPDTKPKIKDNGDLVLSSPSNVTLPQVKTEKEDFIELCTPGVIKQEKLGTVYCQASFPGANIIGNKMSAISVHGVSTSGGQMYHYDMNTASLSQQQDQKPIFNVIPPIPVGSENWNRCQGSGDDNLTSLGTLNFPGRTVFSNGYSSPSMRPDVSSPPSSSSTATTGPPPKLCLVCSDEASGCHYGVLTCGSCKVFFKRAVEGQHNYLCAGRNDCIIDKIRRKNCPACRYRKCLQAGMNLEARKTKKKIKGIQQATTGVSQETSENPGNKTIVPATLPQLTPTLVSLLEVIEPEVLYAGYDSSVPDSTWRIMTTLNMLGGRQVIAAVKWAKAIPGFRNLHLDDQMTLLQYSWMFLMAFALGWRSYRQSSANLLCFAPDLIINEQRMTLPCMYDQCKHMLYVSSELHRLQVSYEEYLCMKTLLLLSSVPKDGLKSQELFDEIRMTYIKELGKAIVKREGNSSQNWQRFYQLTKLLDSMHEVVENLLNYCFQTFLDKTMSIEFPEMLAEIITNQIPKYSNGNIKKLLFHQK
Kind of assay: Human Glucocorticoid Receptor (GR) Assay, fluorescence polarization. As to conditions: GS Red tracer, incubated 2 h at r.t., XLfit model 205, read-out: GRhuFL_FP_v2 Mean IC50. The format is binding. Put shortly:
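After 2 h dark incubation at r.t., polarization reported displacement of the GS Red tracer from recombinant GR, in buffer with phosphate, molybdate, EDTA, DTT and Stabilizing Peptide. Controls: dexamethasone (100%) and DMSO (0%).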
In general terms: Polarisation of emitted light reports the rotation of a fluorescent probe.

With `COCc1ccc(C(=O)N[C@@H](C)[C@H](Oc2ccc3c(cnn3-c3ccc(F)cc3)c2)c2cccc(OC)c2)s1` [Example 299, N-[(1R,2S)-1-[1-(4-fluorophenyl)indazol-5-yl]oxy-1-(3-methoxyphenyl)propan-2-yl]-5-(methoxymethyl)thiophene-2-carboxamide], the IC50 is 3.1 nM.
On to `C[C@H](NC(=O)C(C)(C)C)[C@H](Oc1ccc2c(cnn2-c2ccc(F)cc2)c1)c1ccccc1Cl` [Example 300, N-((1R,2S)-1-(2-chlorophenyl)-1-(1-(4-fluorophenyl)-1H-indazol-5-yloxy)propan-2-yl)pivalamide], for which the IC50 was determined as 2.4 nM.
The result for `COc1cccc([C@@H](Oc2ccc3c(cnn3-c3ccc(F)cc3)c2)[C@H](C)NC(=O)C2CCN(C(=O)OC(C)(C)C)C2)c1` (stereo partly drawn) [Example 301, tert-butyl 3-((1R,2S)-1-(1-(4-fluorophenyl)-1H-indazol-5-yloxy)-1-(3-methoxyphenyl)propan-2-ylcarbamoyl)pyrrolidine-1-carboxylate] reads 5.2 nM; that for `COc1cccc([C@@H](Oc2ccc3c(cnn3-c3ccc(F)cc3)c2)[C@H](C)NC(=O)C(C)(F)F)c1` [Example 302, 2,2-difluoro-N-((1R,2S)-1-(1-(4-fluorophenyl)-1H-indazol-5-yloxy)-1-(3-methoxyphenyl)propan-2-yl)propanamide], 3.2 nM; that for `COc1cccc([C@@H](Oc2ccc3c(cnn3-c3ccc(F)cc3)c2)[C@H](C)NC(=O)[C@@H](C)N)c1` [Example 303, (R)-2-amino-N-((1R,2S)-1-(1-(4-fluorophenyl)-1H-indazol-5-yloxy)-1-(3-methoxyphenyl)propan-2-yl)propanamide trifluoroacetic acid salt], 5 nM.
The result for `COc1cccc([C@@H](Oc2ccc3c(cnn3-c3ccc(F)cc3)c2)[C@H](C)NC(=O)[C@H]2CCCN2)c1` [Example 304, (R)-N-((1R,2S)-1-(1-(4-fluorophenyl)-1H-indazol-5-yloxy)-1-(3-methoxyphenyl)propan-2-yl)pyrrolidine-2-carboxamide trifluoroacetic acid salt] reads 7.5 nM; that for `C[C@H](NC(=O)C(F)(F)F)[C@@H](COc1ccc(F)cc1F)Oc1ccc2c(cnn2-c2ccc(F)cc2)c1` [Example 305, N-((2S,3S)-4-(2,4-difluorophenoxy)-3-(1-(4-fluorophenyl)-1H-indazol-5-yloxy)butan-2-yl)-2,2,2-trifluoroacetamide], 8.3 nM.
Turning to `C[C@H](NC(=O)C(F)(F)F)[C@H](Oc1ccc2c(cnn2-c2ccc(F)cc2)c1)c1ccc2c(c1)OCC2` [Example 307, N-((1R,2S)-1-(2,3-dihydrobenzofuran-6-yl)-1-(1-(4-fluorophenyl)-1H-indazol-5-yloxy)propan-2-yl)-2,2,2-trifluoroacetamide], the IC50 amounted to 4.8 nM.
Next, `COc1cc([C@@H](Oc2ccc3c(cnn3-c3ccc(F)cc3)c2)[C@H](C)NC(=O)C(F)(F)F)ccc1SC` [Example 308, 2,2,2-trifluoro-N-((1R,2S)-1-(1-(4-fluorophenyl)-1H-indazol-5-yloxy)-1-(3-methoxy-4-(methylthio)phenyl)propan-2-yl)acetamide]: 6.9 nM.
